Measured values reported in ChEMBL document CHEMBL4800729 (2021).

Legend:
[1] = biological target: T1, 5-hydroxytryptamine receptor 1B (Homo sapiens, UniProt P28222); experiment: GPCRScan assay: inhibition of 5-HT1B; set-up: radioligand conc. used [nm] 0.6 – 1.5, parental cells stable HEK
[2] = biological target: D(4) dopamine receptor (Homo sapiens) (UniProt P21917); details: Compound concentration 10.0 uM
[3] = biological target: Histamine H1 receptor (Homo sapiens) (UniProt P35367); details: Compound concentration 10.0 uM
Rattus norvegicus = organism: Rattus norvegicus; details: Compound concentration 10.0 uM
[4] = biological target: Alpha-2A adrenergic receptor (Homo sapiens) (UniProt P08913); details: Compound concentration 10.0 uM
[5] = biological target: D(2) dopamine receptor (Homo sapiens) (UniProt P14416); details: Compound concentration 10.0 uM
Chain of D(2) dopamine receptor (Homo sapiens) (P14416 whole entry): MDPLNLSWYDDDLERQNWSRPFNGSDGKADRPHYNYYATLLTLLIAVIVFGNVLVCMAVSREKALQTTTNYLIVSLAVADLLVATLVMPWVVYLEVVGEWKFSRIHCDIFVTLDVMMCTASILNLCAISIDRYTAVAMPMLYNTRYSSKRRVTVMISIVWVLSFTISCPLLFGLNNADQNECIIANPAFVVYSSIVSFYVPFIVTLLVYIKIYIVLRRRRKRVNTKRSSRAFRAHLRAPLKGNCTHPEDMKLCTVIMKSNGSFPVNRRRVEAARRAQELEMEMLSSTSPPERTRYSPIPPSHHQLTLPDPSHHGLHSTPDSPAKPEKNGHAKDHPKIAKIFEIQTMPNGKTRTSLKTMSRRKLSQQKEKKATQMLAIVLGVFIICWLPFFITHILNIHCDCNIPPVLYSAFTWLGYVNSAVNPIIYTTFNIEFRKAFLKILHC

[6] = biological target: Beta-3 adrenergic receptor (Homo sapiens) (UniProt P13945); details: Compound concentration 10.0 uM
Chain of Beta-3 adrenergic receptor (Homo sapiens) (P13945 whole entry, looked up): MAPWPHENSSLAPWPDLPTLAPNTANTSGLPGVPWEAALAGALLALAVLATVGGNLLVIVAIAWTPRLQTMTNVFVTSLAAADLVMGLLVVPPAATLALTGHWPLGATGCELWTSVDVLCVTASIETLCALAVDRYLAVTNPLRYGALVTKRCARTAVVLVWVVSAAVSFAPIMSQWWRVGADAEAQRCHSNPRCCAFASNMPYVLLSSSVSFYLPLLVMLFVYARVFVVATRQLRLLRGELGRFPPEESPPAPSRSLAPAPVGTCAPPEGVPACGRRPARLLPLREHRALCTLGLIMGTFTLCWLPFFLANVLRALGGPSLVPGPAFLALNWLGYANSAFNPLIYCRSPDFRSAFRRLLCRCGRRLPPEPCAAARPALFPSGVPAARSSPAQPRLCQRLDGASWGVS

[7] = biological target: Histamine H3 receptor (Homo sapiens) (UniProt Q9Y5N1); details: Compound concentration 10.0 uM
[8] = biological target: 5-hydroxytryptamine receptor 5A (Homo sapiens) (UniProt P47898); details: Compound concentration 10.0 uM
[9] = biological target: T2, Alpha-2B adrenergic receptor (Homo sapiens) (UniProt P18089); details: Compound concentration 10.0 uM
T2 sequence (whole entry): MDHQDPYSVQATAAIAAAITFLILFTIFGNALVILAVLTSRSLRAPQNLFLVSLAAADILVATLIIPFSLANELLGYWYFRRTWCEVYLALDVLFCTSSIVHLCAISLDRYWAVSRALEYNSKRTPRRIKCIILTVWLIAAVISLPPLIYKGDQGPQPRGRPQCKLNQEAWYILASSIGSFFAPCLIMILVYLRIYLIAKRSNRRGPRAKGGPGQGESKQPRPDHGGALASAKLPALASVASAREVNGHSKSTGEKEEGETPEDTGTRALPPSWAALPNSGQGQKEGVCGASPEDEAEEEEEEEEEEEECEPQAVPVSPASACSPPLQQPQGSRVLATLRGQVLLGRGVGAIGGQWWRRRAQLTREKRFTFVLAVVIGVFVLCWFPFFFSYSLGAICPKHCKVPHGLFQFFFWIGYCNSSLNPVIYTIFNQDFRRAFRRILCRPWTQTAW

[10] = biological target: Delta-type opioid receptor (Homo sapiens) (UniProt P41143); details: Compound concentration 10.0 uM
Chain of Delta-type opioid receptor (Homo sapiens) (P41143 whole entry): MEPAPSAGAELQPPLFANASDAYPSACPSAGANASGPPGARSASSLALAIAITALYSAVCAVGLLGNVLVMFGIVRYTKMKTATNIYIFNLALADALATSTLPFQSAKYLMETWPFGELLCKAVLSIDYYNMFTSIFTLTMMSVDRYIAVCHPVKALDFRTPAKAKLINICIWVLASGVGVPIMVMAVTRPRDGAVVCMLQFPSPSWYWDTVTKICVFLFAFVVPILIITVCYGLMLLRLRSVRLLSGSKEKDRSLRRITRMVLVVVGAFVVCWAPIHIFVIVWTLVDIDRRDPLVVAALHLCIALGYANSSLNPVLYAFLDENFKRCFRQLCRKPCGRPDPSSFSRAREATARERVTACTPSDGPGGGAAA

[11] = biological target: Muscarinic acetylcholine receptor M4 (Homo sapiens) (UniProt P08173); details: Compound concentration 10.0 uM
[12] = biological target: Sodium-dependent dopamine transporter (Homo sapiens) (UniProt Q01959); details: Compound concentration 10.0 uM
[13] = biological target: Sigma intracellular receptor 2 (Homo sapiens) (UniProt Q5BJF2); details: Compound concentration 10.0 uM
[14] = biological target: Beta-1 adrenergic receptor (Homo sapiens) (UniProt P08588); details: Compound concentration 10.0 uM
[15] = biological target: D(3) dopamine receptor (Homo sapiens) (UniProt P35462); details: Compound concentration 10.0 uM
Chain of D(3) dopamine receptor (Homo sapiens) (P35462 whole entry): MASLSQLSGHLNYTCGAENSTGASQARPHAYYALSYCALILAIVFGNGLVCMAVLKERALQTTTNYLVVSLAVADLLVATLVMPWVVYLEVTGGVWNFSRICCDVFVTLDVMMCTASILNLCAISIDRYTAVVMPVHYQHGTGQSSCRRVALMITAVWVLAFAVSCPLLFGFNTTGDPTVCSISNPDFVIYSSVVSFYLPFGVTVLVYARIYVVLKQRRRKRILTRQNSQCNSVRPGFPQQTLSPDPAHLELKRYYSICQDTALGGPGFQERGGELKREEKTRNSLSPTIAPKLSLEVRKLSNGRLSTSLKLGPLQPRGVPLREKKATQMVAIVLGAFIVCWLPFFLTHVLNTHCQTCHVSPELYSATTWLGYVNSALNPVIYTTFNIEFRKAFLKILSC

[16] = biological target: Sodium-dependent noradrenaline transporter (Homo sapiens) (UniProt P23975); details: Compound concentration 10.0 uM
[17] = biological target: 5-hydroxytryptamine receptor 2A (Homo sapiens) (UniProt P28223); details: Compound concentration 10.0 uM
Chain of 5-hydroxytryptamine receptor 2A (Homo sapiens) (P28223 whole entry): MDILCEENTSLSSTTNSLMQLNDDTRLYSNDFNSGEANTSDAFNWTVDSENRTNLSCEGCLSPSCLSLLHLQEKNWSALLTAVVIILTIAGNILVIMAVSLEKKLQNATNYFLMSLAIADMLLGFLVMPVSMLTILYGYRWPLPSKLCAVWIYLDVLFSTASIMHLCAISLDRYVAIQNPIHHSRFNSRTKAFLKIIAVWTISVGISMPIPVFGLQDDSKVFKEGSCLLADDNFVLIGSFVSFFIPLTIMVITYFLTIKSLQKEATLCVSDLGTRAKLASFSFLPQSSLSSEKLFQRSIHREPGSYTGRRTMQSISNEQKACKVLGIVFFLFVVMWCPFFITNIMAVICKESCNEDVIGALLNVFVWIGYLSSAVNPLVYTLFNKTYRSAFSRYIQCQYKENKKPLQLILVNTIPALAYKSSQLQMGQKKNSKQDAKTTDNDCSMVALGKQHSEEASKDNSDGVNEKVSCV

[18] = biological target: T3, Alpha-2C adrenergic receptor (Homo sapiens) (UniProt P18825); details: Compound concentration 10.0 uM
T3 sequence (whole entry): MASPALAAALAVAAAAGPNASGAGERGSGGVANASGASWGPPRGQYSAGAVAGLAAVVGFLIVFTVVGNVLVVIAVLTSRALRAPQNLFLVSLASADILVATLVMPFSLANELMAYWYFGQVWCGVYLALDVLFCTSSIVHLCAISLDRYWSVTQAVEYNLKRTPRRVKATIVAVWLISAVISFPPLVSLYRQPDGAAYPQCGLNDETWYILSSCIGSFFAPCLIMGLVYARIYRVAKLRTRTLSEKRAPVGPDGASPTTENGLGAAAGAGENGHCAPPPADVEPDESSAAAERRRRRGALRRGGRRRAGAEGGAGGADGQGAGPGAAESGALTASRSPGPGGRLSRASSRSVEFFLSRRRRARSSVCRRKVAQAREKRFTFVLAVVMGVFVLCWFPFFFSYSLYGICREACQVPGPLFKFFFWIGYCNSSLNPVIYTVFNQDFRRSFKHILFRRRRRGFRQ

[19] = biological target: T1, 5-hydroxytryptamine receptor 1B; details: Compound concentration 10.0 uM
[20] = biological target: Histamine H4 receptor (Homo sapiens) (UniProt Q9H3N8); details: Compound concentration 10.0 uM
Chain of Histamine H4 receptor (Homo sapiens) (Q9H3N8 whole entry): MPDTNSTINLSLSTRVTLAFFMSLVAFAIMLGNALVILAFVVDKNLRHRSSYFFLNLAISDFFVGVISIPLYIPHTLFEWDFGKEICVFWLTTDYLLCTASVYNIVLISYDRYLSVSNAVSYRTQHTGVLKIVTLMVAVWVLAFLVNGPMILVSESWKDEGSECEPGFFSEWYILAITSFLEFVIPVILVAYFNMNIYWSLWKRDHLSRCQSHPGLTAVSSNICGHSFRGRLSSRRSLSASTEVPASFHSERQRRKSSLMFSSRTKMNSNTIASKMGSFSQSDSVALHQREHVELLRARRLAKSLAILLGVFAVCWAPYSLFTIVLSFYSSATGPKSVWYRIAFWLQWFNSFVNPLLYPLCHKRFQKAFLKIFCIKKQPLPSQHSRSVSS

[21] = biological target: Kappa-type opioid receptor (Homo sapiens) (UniProt P41145); details: Compound concentration 10.0 uM
[22] = biological target: Histamine H2 receptor (Homo sapiens) (UniProt P25021); details: Compound concentration 10.0 uM
Chain of Histamine H2 receptor (Homo sapiens) (P25021 whole entry): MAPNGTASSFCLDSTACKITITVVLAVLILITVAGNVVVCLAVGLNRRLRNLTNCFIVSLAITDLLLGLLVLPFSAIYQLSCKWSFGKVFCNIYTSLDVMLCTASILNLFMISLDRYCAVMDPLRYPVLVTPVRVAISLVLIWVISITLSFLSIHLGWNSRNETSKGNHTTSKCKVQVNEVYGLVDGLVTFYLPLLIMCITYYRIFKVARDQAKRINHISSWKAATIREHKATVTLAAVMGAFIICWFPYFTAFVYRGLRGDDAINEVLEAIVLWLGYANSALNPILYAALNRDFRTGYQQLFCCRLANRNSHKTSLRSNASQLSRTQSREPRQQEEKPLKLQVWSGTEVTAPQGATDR

[23] = biological target: 5-hydroxytryptamine receptor 6 (Homo sapiens, UniProt P50406); experiment: GPCRScan assay: inhibition of 5-HT6; set-up: radioligand conc. used [nm] 2.0 – 4.0, parental cells stable HEK
Chain of 5-hydroxytryptamine receptor 6 (P50406 whole entry): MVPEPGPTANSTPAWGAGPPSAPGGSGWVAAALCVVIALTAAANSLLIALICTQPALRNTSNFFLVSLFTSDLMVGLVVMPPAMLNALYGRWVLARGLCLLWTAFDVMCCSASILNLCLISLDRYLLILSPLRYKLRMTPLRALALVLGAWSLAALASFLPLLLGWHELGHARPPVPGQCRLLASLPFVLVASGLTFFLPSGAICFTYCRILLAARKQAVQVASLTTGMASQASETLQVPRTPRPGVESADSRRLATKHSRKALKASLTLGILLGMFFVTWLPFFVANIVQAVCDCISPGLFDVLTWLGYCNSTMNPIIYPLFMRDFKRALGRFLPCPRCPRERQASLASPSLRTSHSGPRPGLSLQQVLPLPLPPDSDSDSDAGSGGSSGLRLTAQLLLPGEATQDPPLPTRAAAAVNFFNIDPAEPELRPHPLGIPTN

[24] = biological target: Sigma non-opioid intracellular receptor 1 (Homo sapiens) (UniProt Q99720); details: Compound concentration 10.0 uM
D(1A) dopamine receptor = D(1A) dopamine receptor (Homo sapiens, UniProt P21728); experiment: GPCRScan assay: inhibition of D1; set-up: radioligand conc. used [nm] 0.6 – 1.3, parental cells HEKT
Chain of D(1A) dopamine receptor (P21728 whole entry): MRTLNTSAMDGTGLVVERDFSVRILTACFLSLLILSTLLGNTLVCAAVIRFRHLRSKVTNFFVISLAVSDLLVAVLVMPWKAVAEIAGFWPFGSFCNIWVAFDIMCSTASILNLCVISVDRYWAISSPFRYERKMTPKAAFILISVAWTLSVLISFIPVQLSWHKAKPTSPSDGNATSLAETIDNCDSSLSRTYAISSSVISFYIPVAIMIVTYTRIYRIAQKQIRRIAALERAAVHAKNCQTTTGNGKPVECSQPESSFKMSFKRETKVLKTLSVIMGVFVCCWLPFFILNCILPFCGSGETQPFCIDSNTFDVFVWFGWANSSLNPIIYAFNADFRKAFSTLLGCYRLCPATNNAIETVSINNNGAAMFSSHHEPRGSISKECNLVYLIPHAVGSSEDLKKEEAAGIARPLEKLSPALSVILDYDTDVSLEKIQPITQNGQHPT

[25] = biological target: T4, Muscarinic acetylcholine receptor M1 (Homo sapiens) (UniProt P11229); details: Compound concentration 10.0 uM
T4 sequence (whole entry): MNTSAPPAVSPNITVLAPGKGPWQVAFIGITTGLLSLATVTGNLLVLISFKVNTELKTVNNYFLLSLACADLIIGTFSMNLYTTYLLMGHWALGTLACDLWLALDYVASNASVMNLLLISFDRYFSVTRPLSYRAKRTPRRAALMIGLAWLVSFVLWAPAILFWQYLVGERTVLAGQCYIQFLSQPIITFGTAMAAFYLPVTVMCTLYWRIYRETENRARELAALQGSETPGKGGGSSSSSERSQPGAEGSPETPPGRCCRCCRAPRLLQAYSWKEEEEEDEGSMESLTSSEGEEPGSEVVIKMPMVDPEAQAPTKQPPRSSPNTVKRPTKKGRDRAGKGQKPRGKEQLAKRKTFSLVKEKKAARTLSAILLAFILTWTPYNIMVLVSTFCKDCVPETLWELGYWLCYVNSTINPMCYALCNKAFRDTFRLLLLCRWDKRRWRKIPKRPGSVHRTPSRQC

[26] = biological target: Mu-type opioid receptor (Homo sapiens) (UniProt P35372); details: Compound concentration 10.0 uM
Chain of Mu-type opioid receptor (Homo sapiens) (P35372 whole entry): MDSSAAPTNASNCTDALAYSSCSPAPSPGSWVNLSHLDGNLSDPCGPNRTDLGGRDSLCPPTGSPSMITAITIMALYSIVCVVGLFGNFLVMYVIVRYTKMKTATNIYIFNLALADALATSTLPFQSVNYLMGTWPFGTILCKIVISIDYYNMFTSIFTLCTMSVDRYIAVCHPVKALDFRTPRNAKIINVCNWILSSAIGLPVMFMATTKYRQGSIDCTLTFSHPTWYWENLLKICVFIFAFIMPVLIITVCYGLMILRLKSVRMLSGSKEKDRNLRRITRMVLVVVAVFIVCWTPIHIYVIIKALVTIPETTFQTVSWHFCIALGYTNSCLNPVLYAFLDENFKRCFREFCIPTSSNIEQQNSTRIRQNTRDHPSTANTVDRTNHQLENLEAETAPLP

[27] = biological target: 5-hydroxytryptamine receptor 3A (Homo sapiens) (UniProt P46098); details: Compound concentration 10.0 uM
[28] = biological target: T5, 5-hydroxytryptamine receptor 1A (Homo sapiens) (UniProt P08908); details: Compound concentration 10.0 uM
T5 sequence (whole entry): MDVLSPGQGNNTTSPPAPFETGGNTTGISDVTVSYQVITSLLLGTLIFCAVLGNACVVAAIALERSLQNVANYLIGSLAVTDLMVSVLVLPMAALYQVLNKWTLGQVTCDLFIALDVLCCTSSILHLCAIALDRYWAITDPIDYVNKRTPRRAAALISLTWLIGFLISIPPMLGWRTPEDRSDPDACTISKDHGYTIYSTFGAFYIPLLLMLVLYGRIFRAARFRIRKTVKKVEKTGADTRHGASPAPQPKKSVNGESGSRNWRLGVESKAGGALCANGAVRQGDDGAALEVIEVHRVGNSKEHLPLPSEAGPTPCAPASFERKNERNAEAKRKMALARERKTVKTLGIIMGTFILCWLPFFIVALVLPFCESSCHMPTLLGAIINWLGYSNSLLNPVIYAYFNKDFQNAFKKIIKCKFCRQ

[29] = biological target: 5-hydroxytryptamine receptor 1D (Homo sapiens) (UniProt P28221); details: Compound concentration 10.0 uM
Chain of 5-hydroxytryptamine receptor 1D (Homo sapiens) (P28221 whole entry): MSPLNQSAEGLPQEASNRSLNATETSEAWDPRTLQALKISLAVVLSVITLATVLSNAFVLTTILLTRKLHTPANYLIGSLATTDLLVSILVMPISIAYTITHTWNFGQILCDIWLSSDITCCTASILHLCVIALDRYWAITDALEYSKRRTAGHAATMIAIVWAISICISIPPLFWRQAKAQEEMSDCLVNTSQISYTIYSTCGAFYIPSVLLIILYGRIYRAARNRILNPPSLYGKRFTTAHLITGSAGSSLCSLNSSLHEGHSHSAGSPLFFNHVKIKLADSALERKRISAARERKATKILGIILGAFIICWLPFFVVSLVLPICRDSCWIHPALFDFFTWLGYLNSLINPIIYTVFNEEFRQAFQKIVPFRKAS

T1 sequence (P28222 whole entry): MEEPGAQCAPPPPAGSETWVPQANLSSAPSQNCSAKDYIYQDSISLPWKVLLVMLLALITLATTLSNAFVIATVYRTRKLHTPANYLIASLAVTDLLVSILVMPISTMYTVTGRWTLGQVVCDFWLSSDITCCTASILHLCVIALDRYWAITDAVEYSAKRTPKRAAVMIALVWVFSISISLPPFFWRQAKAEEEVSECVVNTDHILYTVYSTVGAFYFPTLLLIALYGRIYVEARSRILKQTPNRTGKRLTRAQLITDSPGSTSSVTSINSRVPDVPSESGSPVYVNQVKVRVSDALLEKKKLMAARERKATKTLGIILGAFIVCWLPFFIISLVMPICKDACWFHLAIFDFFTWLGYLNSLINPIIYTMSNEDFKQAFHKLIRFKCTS

CC[C@H](Nc1c(C#N)c(-c2ccc(-c3cccc(C)c3F)cc2)nc2cnccc12)C(=O)O [BAY-0361]
Ki [1]: > 10 µM | pKi [1]: < 5 | inhibition [2]: -8.01% | inhibition [3]: -8.53% | inhibition (Rattus norvegicus): 41.8% | inhibition [4]: 8.09% | inhibition [5]: -5.16% | inhibition [6]: 21.6% | inhibition [7]: -8.98% | inhibition [8]: -9.19% | inhibition [9]: -7.7% | inhibition [10]: 3.55% | inhibition [11]: -0.83% | inhibition [12]: 38.8% | inhibition [13]: 11.6% | inhibition [14]: 5.52% | inhibition [15]: 7.14% | inhibition [16]: -6.08% | inhibition [17]: -9.27% | inhibition [18]: -6.46% | inhibition [19]: 51% | inhibition [20]: 18.7% | inhibition [21]: 4.36% | inhibition [22]: 9.78% | Ki [23]: > 10 µM | pKi [23]: < 5 | inhibition [24]: 23.1% | Ki (D(1A) dopamine receptor): 9.48 µM | inhibition [25]: -8.53% | inhibition [26]: -9.08% | inhibition [27]: 2.07% | inhibition [28]: 8.67% | inhibition [29]: 46.6%
